Test [1] deals with human adrenergic beta2 receptor (Homo sapiens (Human), UniProt P07550). Nature of the test: Human adrenergic β2 receptor binding assay (3H-CGP12177, Sf9 cell membranes). Conditions: 0.6 nM 3H-CGP12177, membranes from Sf9 cells. As to the method:
Test 1: Human Adrenergic β1 and β2 Receptor Binding Assays
The study of binding to human adrenergic beta1 and beta2 receptors was performed using commercial membranes prepared from Sf9 cells where they are overexpressed (Perkin Elmer). The membrane suspensions (16 μg/well for beta1 and 5 μg/well for beta2) in assay buffer (75 mM Tris/HCl with 12.5 mM MgCl2 and 2 mM EDTA pH=7.4) were incubated with 0.14 or 0.6 nM of 3H-CGP12177 (Amersham) for beta 1 and beta 2 receptors respectively in a final volume of 250 μl, in GFC Multiscreen 96 well plates (Millipore) previously treated with assay buffer containing 0.3% PEI (Sigma). Non specific binding was measured in the presence of 1 μM propanolol. Incubation was maintained for 60 minutes at room temperature and with gentle shaking. The binding reactions were terminated by filtration and washing with 2.5 volumes of Tris/HCl 50 mM pH=7.4. The affinity of each test compound to the receptor was determined by using ten different concentrations ran in duplicate. IC50s were calculated using Activity Base software from IDBS and the four parameters-log equation.

For test [2], the target named is human muscarinic M3 receptor (Homo sapiens (Human), UniProt P20309). Put plainly: Human muscarinic M3 receptor binding assay ([3H]-NMS, CHO-K1 cell membranes). Conditions: 1 nM [3H]-NMS, membranes from CHO-K1 cells. The protocol: Test 2: Human Muscarinic M1, M2, M3, M4 and M5 Receptors Binding Assays
Sequence of human muscarinic M3 receptor (P20309 whole entry): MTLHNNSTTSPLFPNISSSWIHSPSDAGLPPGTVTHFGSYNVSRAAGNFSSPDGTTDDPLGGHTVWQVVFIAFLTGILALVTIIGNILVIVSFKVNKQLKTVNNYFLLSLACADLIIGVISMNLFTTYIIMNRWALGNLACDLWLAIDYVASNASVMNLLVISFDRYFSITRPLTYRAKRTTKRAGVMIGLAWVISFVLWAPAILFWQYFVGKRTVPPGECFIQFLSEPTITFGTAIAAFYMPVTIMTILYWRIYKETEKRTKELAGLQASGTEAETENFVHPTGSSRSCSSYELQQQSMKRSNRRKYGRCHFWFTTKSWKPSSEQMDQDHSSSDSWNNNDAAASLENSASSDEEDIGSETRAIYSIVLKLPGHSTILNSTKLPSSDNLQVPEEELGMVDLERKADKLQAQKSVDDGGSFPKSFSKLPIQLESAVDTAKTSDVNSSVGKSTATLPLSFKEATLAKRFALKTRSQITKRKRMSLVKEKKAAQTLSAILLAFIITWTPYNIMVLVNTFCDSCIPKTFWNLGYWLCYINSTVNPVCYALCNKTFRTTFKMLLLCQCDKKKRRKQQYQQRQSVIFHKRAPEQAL
The study of binding to human muscarinic M1, M2, M3, M4 and M5 receptors was performed using commercial membranes (Perkin Elmer) prepared from CHO-K1 cells. Radioligand binding experiments were conducted in 96 polypropylene well plates in a total volume of 200 μl. All reagents were dissolved in assay binding buffer (PBS with calcium and magnesium, SIGMA), except compounds that were dissolved in DMSO 100%. Non-specific binding (NSB) was measured in the presence of 1 μM atropine. [3H]-NMS was used as the radioligand at a concentration of 1 nM for M2, M3 and M5 and 0.3 nM for M1 and M4. […]
After an incubation period of two hours with gentle shaking, 150 μl of the reaction mix were transferred to 96 GF/C filter plates (Millipore), previously treated with wash buffer (Tris 50 mM; NaCl 100 mM; pH: 7.4), containing 0.05% PEI (Sigma) during one hour. […] After drying 30 min, 30 μl of OPTIPHASE Supermix were added to each well and radioactivity quantified using a Microbeta microplate scintillation counter.
The affinity of each test compound to the receptors was determined by using ten different concentrations ran in duplicate. IC50s were calculated using Activity Base software from IDBS and the four parameters-log equation.

The IC50 is the point on the concentration scale where inhibition reaches its midpoint. The low end stands for inhibition by little substance, the high end for a need for much substance. As for `CN(CCCn1c(=O)[nH]c2cc(CNC[C@H](O)c3ccc(O)c4[nH]c(=O)ccc34)ccc21)[C@H]1CC[C@H](OC(=O)C(O)(c2cccs2)c2cccs2)CC1` (relative stereo) [Example 2, trans-4-[{3-[5-({[(2R)-2-hydroxy-2-(8-hydroxy-2-oxo-1,2-dihydroquinolin-5-yl)ethyl]amino}methyl)-2-oxo-2,3-dihydro-H-benzimidazol-1-yl]propyl}(methyl)amino]cyclohexyl hydroxy(di-2-thienyl)acetate dihydrofluoride], the IC50 in test [1] came to 120 nM; in test [2], 0.4 nM.

As for “trans-4-{[2-({2-[4-(2-{[(2R)-2-hydroxy-2-(8-hydroxy-2-oxo-1,2-dihydroquinolin-5-yl)ethyl]amino}propyl)phenoxy]acetyl}amino)ethyl]amino}cyclohexyl hydroxy(di-2-thienyl)acetate dihydrofluoride [Example 20]”, the half-maximal inhibitory concentration (IC50) was determined as 3.1 nM in test [1] and 3.6 nM in test [2].

For the origin of these results see US9757383B2, “Cyclohexylamine derivatives having β2 adrenergic agonist and M3 muscarinic antagonist activities” (ALMIRALL, S.A., priority 2011, dated 2017).
